Results reported in patent US20260256702A1, “SUSTAINED ADJUNCT THERAPY TO IMPROVE CHEMOTHERAPY EFFICACY IN GLIOBLASTOMA IN A CEREBROVASCULA TUMOR-ON-A-CHIP MODEL” (Ohio State Innovation Foundation, priority 2022, published 2026).

System: human umbilical vein endothelial cells (HUVECs)
Assay: Capillary tubule formation assay
Type: cell-based
Description: We have developed a novel process that combines electrospinning, sintering, and salt leaching to create tunable capsules for long-term controlled release of a compound. The capsules enable high levels of therapeutic loading with preserved bioactivity due to the hollow core that is loaded post-processing without the typical loss seen during encapsulation procedures. The polymers in the device are biocompatible, biodegradable, and used for applications in drug delivery. Chitosan, a positively charged biopolymer was selected for the inner layer of the capsule to electrostatically interact with negatively charged proteins, peptides, and antibodies (e.g. anti-VEGF, αCT11) to slow release. Poly(caprolactone) (PCL) was selected for the outer layer of the device due to its hydrophobicity that slows hydrolytic degradation. Capsule inner diameters ranged from 0.26-1.7 mm, with average wall thickness of 90 μm. Scanning electron microscopy (SEM) was used to measure capsule dimensions and pore size (FIG. 5A). No pores were present after sintering when prepared without salts. Pore size increased from 237±97 nm to 609±274 nm for 1% to 10% salt concentrations, and elution was increased at >5% salt concentration due to pore interconnectivity. In preliminary studies, in vitro release of model protein BSA and anti-VEGF (bevacizumab) were evaluated. […]

Question: For “bevacizumab: anti-VEGF (149 kDa), released from capsules”, which tubule formation (VEGF 5 ng/ml, 10 μg/ml bevacizumab released from capsules at time points out to 9 months) is on record?
Answer: tubule formation was inhibited

Question: What about the “tubule size versus fresh anti-VEGF control” value (anti-VEGF released after 9 months, 5 ng VEGF) of the same substance?
Answer: no significant difference in tubule size
